# Measurements reported in paper PMC2801564 (Chemistry & biology, 2009).
# Molecular target: T1, cathepsin L (CatL) (Ixodes ricinus, UniProt A4GTA6)
# T1 sequence (A4GTA6 119-335): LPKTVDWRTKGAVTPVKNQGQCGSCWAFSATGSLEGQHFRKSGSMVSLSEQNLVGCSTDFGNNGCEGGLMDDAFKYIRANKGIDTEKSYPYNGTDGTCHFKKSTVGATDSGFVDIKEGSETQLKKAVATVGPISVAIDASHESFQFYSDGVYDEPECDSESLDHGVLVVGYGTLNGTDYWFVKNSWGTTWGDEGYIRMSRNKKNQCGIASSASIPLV
# Test: fluorimetric inhibition assay in gut extract
# Format: biochemical
# Conditions: DTT; pH optimum; 35 °C; covalent
structure (smiles),measurement,value
CC(C)C[C@H](NC(=O)[C@H]1O[C@@H]1C(=O)O)C(=O)NCCCCNC(=N)N [E-64],% inhibition,"insensitive to E-64 (in contrast to cathepsins B, L and C)"
